Test results reported in ChEMBL document CHEMBL1156829 (Proc Natl Acad Sci U S A, 2008).

How the values were obtained:
Plasmodium falciparum [1] = assay: NOVARTIS: Inhibition of Plasmodium falciparum 3D7 (drug-susceptible) proliferation in erythrocyte-based infection assay; type: functional, organism-based; details: Plasmodium falciparum, 3D7
Plasmodium falciparum [2] = assay: NOVARTIS: Inhibition of Plasmodium falciparum W2 (drug-resistant) proliferation in erythrocyte-based infection assay; type: functional, organism-based; details: Plasmodium falciparum, W2; read-out: EC50
[3] = NOVARTIS: Cytotoxicity against human hepatocellular carcinoma cell line (Huh7); type: toxicity, cell-based, Huh-7; details: Huh7 cells (hepatocellular carcinoma cell line)

O=C(NCc1nnc(SCC2CCCO2)n1Cc1ccccc1)c1cccc2ccccc12 (stereo not drawn)
EC50 (Plasmodium falciparum [1]): 1870 nM | EC50 (Plasmodium falciparum [2]): < 26.5 nM | CC50 [3]: 8280 nM

CCOC(=O)c1ccc(N2CCN(c3cc(C)ccc3C)CC2)c(NC(=O)Nc2ccc(Cl)cc2)c1
EC50 (Plasmodium falciparum [1]): > 3540 nM | EC50 (Plasmodium falciparum [2]): 691 nM | CC50 [3]: > 100000 nM

O=C(NCCCCNc1ccnc2cc(Cl)ccc12)c1cccc(C(F)(F)F)c1
EC50 (Plasmodium falciparum [1]): 171 nM | EC50 (Plasmodium falciparum [2]): < 13.8 nM | CC50 [3]: > 10000 nM

CC(=NO)c1ccc2c(c1)C(C)(C)CCC2(C)C
EC50 (Plasmodium falciparum [1]): 3510 nM | EC50 (Plasmodium falciparum [2]): 3900 nM | CC50 [3]: 37100 nM

CC(C)Nc1ccc(Nc2ccnc3cc4ccccc4cc23)cc1
EC50 (Plasmodium falciparum [1]): 31.8 nM | EC50 (Plasmodium falciparum [2]): 276 nM | CC50 [3]: 5400 nM

COc1cc(CNNc2nc3cc(Cl)ccc3[nH]2)cc(OC)c1OC
EC50 (Plasmodium falciparum [1]): 308 nM | EC50 (Plasmodium falciparum [2]): 541 nM | CC50 [3]: > 10000 nM

CCOC(=O)c1[nH]c(C)c(Cc2ccc(OCC)cc2)c1C
EC50 (Plasmodium falciparum [1]): 279 nM | EC50 (Plasmodium falciparum [2]): 347 nM | CC50 [3]: > 100000 nM

CCN1CCN(c2cc(C)c3cc(NC(=O)C=Cc4ccccc4Cl)ccc3n2)CC1
EC50 (Plasmodium falciparum [1]): 546 nM | EC50 (Plasmodium falciparum [2]): 697 nM | CC50 [3]: 18400 nM

Cc1ccc(N2C(=O)CC(NCCCN3CCOCC3)C2=O)cc1 (stereo not drawn)
EC50 (Plasmodium falciparum [1]): > 1290 nM | EC50 (Plasmodium falciparum [2]): 1610 nM | CC50 [3]: > 10000 nM

Nc1ncc(Br)cc1S(=O)(=O)NCCC(=O)N1CC=C(c2ccccc2)CC1
EC50 (Plasmodium falciparum [1]): 384 nM | EC50 (Plasmodium falciparum [2]): 1020 nM | CC50 [3]: 48900 nM

CCN(CC)c1scc(-c2ccc(Cl)cc2)[s+]1
EC50 (Plasmodium falciparum [1]): 303 nM | EC50 (Plasmodium falciparum [2]): 725 nM | CC50 [3]: 25400 nM

Cc1cc(Nc2ccc(C)c(C)c2)n2cnnc2n1
EC50 (Plasmodium falciparum [1]): 242 nM | EC50 (Plasmodium falciparum [2]): 590 nM | CC50 [3]: > 73900 nM

O=C(C=Cc1ccccc1)c1c(-c2ccccc2)c2cc([N+](=O)[O-])ccc2[nH]c1=O
EC50 (Plasmodium falciparum [1]): > 9370 nM | EC50 (Plasmodium falciparum [2]): > 4460 nM | CC50 [3]: > 100000 nM

CCc1ccc(C=NNC(=O)COc2ccc3c(c2)OCO3)cc1
EC50 (Plasmodium falciparum [1]): > 1230 nM | EC50 (Plasmodium falciparum [2]): > 975 nM | CC50 [3]: > 10000 nM

Cc1ccccc1CN1CCN(CC=Cc2ccccc2)CCC1=O
EC50 (Plasmodium falciparum [1]): 1430 nM | EC50 (Plasmodium falciparum [2]): 531 nM | CC50 [3]: > 100000 nM

Oc1ccc(-c2ccccc2)cc1CN1CCC(c2ccccc2)CC1
EC50 (Plasmodium falciparum [1]): 2420 nM | EC50 (Plasmodium falciparum [2]): 204 nM | CC50 [3]: > 100000 nM

COc1ccc(-n2cnc3cc(NCc4nc5ccccc5n4C)ccc32)cc1
EC50 (Plasmodium falciparum [1]): 912 nM | EC50 (Plasmodium falciparum [2]): 906 nM | CC50 [3]: 56800 nM

Brc1ccc2[nH]c3nc4ccccc4nc3c2c1
EC50 (Plasmodium falciparum [1]): > 12500 nM | EC50 (Plasmodium falciparum [2]): > 5920 nM | CC50 [3]: > 100000 nM

CCN1C(C(=O)c2ccccc2)=C(Nc2c(C)n(C)n(-c3ccccc3)c2=O)c2ccccc2S1(=O)=O
EC50 (Plasmodium falciparum [1]): > 12500 nM | EC50 (Plasmodium falciparum [2]): 3310 nM | CC50 [3]: > 100000 nM

O=C1NN=C2C1=NC1(CCCCC1)Cc1ccccc12
EC50 (Plasmodium falciparum [1]): 325 nM | EC50 (Plasmodium falciparum [2]): 376 nM | CC50 [3]: 3900 nM

O=C(NNc1nc(-c2cc3ccccc3oc2=O)cs1)c1ccccc1
EC50 (Plasmodium falciparum [1]): > 1250 nM | EC50 (Plasmodium falciparum [2]): > 981 nM | CC50 [3]: > 10000 nM

O=S(=O)(NCCNc1ncnc2scc(-c3ccccc3)c12)c1ccc(Cl)c(Cl)c1
EC50 (Plasmodium falciparum [1]): 290 nM | EC50 (Plasmodium falciparum [2]): 307 nM | CC50 [3]: > 100000 nM

COc1ccccc1N1CCN(C(=O)CCCCSc2nnc3c4cc(F)ccc4n(Cc4ccc(F)cc4)c3n2)CC1
EC50 (Plasmodium falciparum [1]): 265 nM | EC50 (Plasmodium falciparum [2]): 207 nM | CC50 [3]: > 57700 nM

CCN(CC)CCNc1ccnc2cc(Cl)ccc12
EC50 (Plasmodium falciparum [1]): 7.16 nM | EC50 (Plasmodium falciparum [2]): 6.01 nM | CC50 [3]: 29800 nM

O=C(NC(CN1CCCC1)c1ccccc1)C1CCCCN1S(=O)(=O)c1ccccc1 (stereo not drawn)
EC50 (Plasmodium falciparum [1]): 632 nM | EC50 (Plasmodium falciparum [2]): 1260 nM | CC50 [3]: > 10000 nM

O=C(Nc1ccc2nc3n(c(=O)c2c1)CCCCC3)C(=O)N1CCN(c2cccc(Cl)c2)CC1
EC50 (Plasmodium falciparum [1]): 1810 nM | EC50 (Plasmodium falciparum [2]): 250 nM | CC50 [3]: > 100000 nM

NCCC(=O)N1CC(c2ccccc2)c2ccccc2C1CN1CCCCC1 (stereo not drawn)
EC50 (Plasmodium falciparum [1]): 342 nM | EC50 (Plasmodium falciparum [2]): 231 nM | CC50 [3]: 8520 nM

C=CCOc1ccccc1CN1CCN(c2ccccn2)CC1
EC50 (Plasmodium falciparum [1]): > 9990 nM | EC50 (Plasmodium falciparum [2]): 4850 nM | CC50 [3]: > 98500 nM

CN(CCCNc1ccnc2cc(Cl)ccc12)C(=O)COc1ccc(Cl)cc1
EC50 (Plasmodium falciparum [1]): 59.2 nM | EC50 (Plasmodium falciparum [2]): 78.5 nM | CC50 [3]: 20300 nM

COc1cccc(CNc2ncnc3sc(C(=O)NCC4COCCO4)c(C)c23)c1OC (stereo not drawn)
EC50 (Plasmodium falciparum [1]): > 12500 nM | EC50 (Plasmodium falciparum [2]): 3500 nM | CC50 [3]: > 100000 nM

O=C(O)c1cc([N+](=O)[O-])ccc1Oc1cncc(Cl)c1
EC50 (Plasmodium falciparum [1]): 33.3 nM | EC50 (Plasmodium falciparum [2]): > 1250 nM | CC50 [3]: > 10000 nM

CC(=O)c1ccc2c3c(onc13)-c1ccccc1C2=O
EC50 (Plasmodium falciparum [1]): 2250 nM | EC50 (Plasmodium falciparum [2]): 791 nM | CC50 [3]: > 100000 nM

COc1cccc(N2C(N)=NC(N)=NC2(C)C)c1
EC50 (Plasmodium falciparum [1]): 55.5 nM | EC50 (Plasmodium falciparum [2]): 498 nM | CC50 [3]: > 100000 nM

CCS/C(Cl)=C(/NC(=O)c1ccccc1)[P+](c1ccccc1)(c1ccccc1)c1ccccc1
EC50 (Plasmodium falciparum [1]): 110 nM | EC50 (Plasmodium falciparum [2]): 52 nM | CC50 [3]: > 10000 nM

OCCNc1nc(Nc2cccc(O)c2)nc2ccccc12
EC50 (Plasmodium falciparum [1]): 203 nM | EC50 (Plasmodium falciparum [2]): 1010 nM | CC50 [3]: 69400 nM

Cc1ccc(-c2c[n+](-c3ccccc3)c3n2CCCS3)cc1
EC50 (Plasmodium falciparum [1]): 735 nM | EC50 (Plasmodium falciparum [2]): 1640 nM | CC50 [3]: > 100000 nM

Clc1ccc(-c2c[n+](CCc3ccccc3)c3n2CCC3)cc1
EC50 (Plasmodium falciparum [1]): 380 nM | EC50 (Plasmodium falciparum [2]): 299 nM | CC50 [3]: > 100000 nM

O=C(CC1SC(=Nc2ccccc2)NC1=O)Nc1cc(Cl)ccc1Cl (stereo not drawn)
EC50 (Plasmodium falciparum [1]): > 12500 nM | EC50 (Plasmodium falciparum [2]): > 7080 nM | CC50 [3]: > 100000 nM

CCC(C(=O)Oc1ccccc1-c1nc2cc(C)ccn2c1NC(C)(C)CC(C)(C)C)c1ccccc1 (stereo not drawn)
EC50 (Plasmodium falciparum [1]): 894 nM | EC50 (Plasmodium falciparum [2]): 34.7 nM | CC50 [3]: > 10000 nM

O=S(=O)(ON=C1CCCc2sc(Cl)cc21)c1ccccc1
EC50 (Plasmodium falciparum [1]): 158 nM | EC50 (Plasmodium falciparum [2]): 40.9 nM | CC50 [3]: > 100000 nM

COc1ccc(C2CC(=O)C3=C(C2)NC(C)=C(C(=O)OC2CCCCC2)C3c2ccc([N+](=O)[O-])cc2)cc1OC (stereo not drawn)
EC50 (Plasmodium falciparum [1]): 194 nM | EC50 (Plasmodium falciparum [2]): 61.7 nM | CC50 [3]: > 100000 nM

Cc1ccc(NC(=O)N(CCN(C)C)Cc2cc3cc4c(cc3[nH]c2=O)OCCO4)cc1
EC50 (Plasmodium falciparum [1]): 984 nM | EC50 (Plasmodium falciparum [2]): 157 nM | CC50 [3]: > 100000 nM

Cc1ccc2nc(Nc3ncc4c(n3)CC(C)(C)CC4=O)nc(C)c2c1
EC50 (Plasmodium falciparum [1]): > 12500 nM | EC50 (Plasmodium falciparum [2]): 1250 nM | CC50 [3]: > 100000 nM

CCn1c(SCCCCNC(=O)c2cc([N+](=O)[O-])cc([N+](=O)[O-])c2)nc(-c2ccccc2)c1-c1ccccc1
EC50 (Plasmodium falciparum [1]): 724 nM | EC50 (Plasmodium falciparum [2]): 612 nM | CC50 [3]: 6520 nM

CCOC(=O)N1CCc2c(sc(NCc3ccc(C)o3)c2C(=O)Nc2ccc(OC)cc2OC)C1
EC50 (Plasmodium falciparum [1]): 9100 nM | EC50 (Plasmodium falciparum [2]): 3010 nM | CC50 [3]: > 100000 nM

CC(=O)C1C(=O)c2c(cccc2[N+](=O)[O-])C1=Nc1ccccc1C (stereo not drawn)
EC50 (Plasmodium falciparum [1]): 643 nM | EC50 (Plasmodium falciparum [2]): 777 nM | CC50 [3]: 51700 nM

CCc1ccccc1-n1c(C(C)N(C)C(=O)/C=C/c2ccc([N+](=O)[O-])cc2)nc2ccccc2c1=O (stereo not drawn)
EC50 (Plasmodium falciparum [1]): 266 nM | EC50 (Plasmodium falciparum [2]): 174 nM | CC50 [3]: 8350 nM

O=C(C[n+]1cc(-c2ccccc2)n2c1CCC2)c1ccc(C2CCCCC2)cc1
EC50 (Plasmodium falciparum [1]): 312 nM | EC50 (Plasmodium falciparum [2]): 393 nM | CC50 [3]: 17100 nM

CCOc1ccc2[nH]c(=O)c(CN(CCCN3CCOCC3)C(=S)NCCCN(CC)CC)cc2c1
EC50 (Plasmodium falciparum [1]): 2610 nM | EC50 (Plasmodium falciparum [2]): 679 nM | CC50 [3]: > 100000 nM

COC(=O)C1C(=O)C2=C(CC1C)NC(=O)CC2c1ccc(Cl)cc1Cl (stereo not drawn)
EC50 (Plasmodium falciparum [1]): 991 nM | EC50 (Plasmodium falciparum [2]): 128 nM | CC50 [3]: > 100000 nM

CC(C)Nc1nc(-c2cccnc2)nc2ccccc12
EC50 (Plasmodium falciparum [1]): > 829 nM | EC50 (Plasmodium falciparum [2]): > 955 nM | CC50 [3]: > 10000 nM
